From ChEMBL document CHEMBL1201862, “PubChem BioAssay data set” (2004)
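Exposure lasted 48 hours, with cells grown in 96-well plates and compounds tested at five concentrations. The concentration for 50% growth inhibition is given as GI50.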 The source made the active and inactive calls. Cut-off read from the data, not from the text of the source: active = GI50 up to about 1.1 µM and inactive = higher. Residues, ends and D or L forms follow the SMILES beside them. *: point of attachment. OBn = c1ccc(CO*)cc1

Legend:
Assay in all cases: NCI anticancer screen, dose series, 48 h
SF-539 = tested on: SF-539
SF-268 = tested on: SF-268
NCI-H460 = tested on: NCI-H460
Malme-3M = tested on: Malme-3M
NCI/ADR-RES = tested on: NCI/ADR-RES
T47D = tested on: T47D
SN12C = tested on: SN12C
SR = tested on: SR
HCT-116 = tested on: HCT-116
K562 = tested on: K562
A549 = tested on: A549
MDA-MB-231 = tested on: MDA-MB-231
UACC-62 = tested on: UACC-62
M14 = tested on: M14
SNB-19 = tested on: SNB-19
RXF 393 = tested on: RXF 393
PC-3 = tested on: PC-3
EKVX = tested on: EKVX
HL-60 = tested on: HL-60
SW-620 = tested on: SW-620

Measured: GI50

CCCc1cc(-c2ccc(-c3cc(CCC)c(C=O)[nH]3)s2)[nH]c1C=O
inactive: SF-539 > 100 µM | SF-268 > 84.7 µM | NCI-H460 5.2 µM | Malme-3M 21.2 µM | NCI/ADR-RES 18.4 µM | T47D 6.05 µM | SN12C > 69.2 µM | SR 2.14 µM | HCT-116 21.8 µM | K562 5.48 µM | A549 4.42 µM | MDA-MB-231 > 100 µM | UACC-62 > 32.6 µM | M14 7.08 µM | SNB-19 > 100 µM | RXF 393 30.1 µM | PC-3 26.5 µM | EKVX > 100 µM | HL-60 4.3 µM | SW-620 > 55.8 µM

O=C1NC(c2ccccc2)C1N(Cc1ccccc1)Cc1ccccc1 (stereo unspecified)
inactive: SF-539 > 100 µM | SF-268 > 100 µM | NCI-H460 > 100 µM | Malme-3M > 100 µM | NCI/ADR-RES > 100 µM | T47D > 100 µM | SN12C > 100 µM | SR > 100 µM | HCT-116 > 100 µM | K562 > 100 µM | MDA-MB-231 74.1 µM | UACC-62 93.1 µM | M14 > 100 µM | SNB-19 > 100 µM | RXF 393 > 100 µM | PC-3 > 100 µM | EKVX > 100 µM | HL-60 > 100 µM | SW-620 > 100 µM

S=C1Cc2cc3ccccc3nc2-c2ccccc2N1
inactive: SF-539 12.6 µM | SF-268 7.01 µM | NCI-H460 15.1 µM | Malme-3M 27.5 µM | NCI/ADR-RES 10.1 µM | T47D 8.3 µM | SN12C 16.7 µM | SR 29 µM | HCT-116 13.6 µM | K562 > 100 µM | A549 26.1 µM | MDA-MB-231 10.4 µM | UACC-62 8.45 µM | M14 26.7 µM | SNB-19 > 29.3 µM | RXF 393 8.65 µM | PC-3 36 µM | EKVX 38 µM | HL-60 > 100 µM | SW-620 37 µM

CC(=O)c1cc2ccccc2[n+]([O-])c1N
inactive: SF-539 > 100 µM | SF-268 > 100 µM | NCI-H460 > 100 µM | Malme-3M > 100 µM | NCI/ADR-RES > 100 µM | T47D > 100 µM | SN12C > 100 µM | SR > 100 µM | HCT-116 > 100 µM | A549 > 100 µM | MDA-MB-231 > 100 µM | UACC-62 > 100 µM | M14 > 100 µM | RXF 393 > 100 µM | PC-3 > 100 µM | EKVX > 100 µM | HL-60 > 100 µM

Cc1ccc(C(=O)CCl)o1
inactive: SF-539 4.15 µM | SF-268 > 6.97 µM | NCI-H460 > 10 µM | Malme-3M 3.18 µM | NCI/ADR-RES > 10 µM | T47D 4.61 µM | SN12C 3.69 µM | SR 3.07 µM | HCT-116 1.86 µM | K562 3.93 µM | A549 > 10 µM | MDA-MB-231 > 7.31 µM | UACC-62 > 7.91 µM | M14 3.86 µM | SNB-19 > 10 µM | RXF 393 > 9.31 µM | PC-3 > 10 µM | EKVX > 10 µM | HL-60 2.11 µM | SW-620 2.3 µM

COc1ccc2c3c([nH]c2c1)CCN(CCCC(=O)c1ccc(F)cc1)C3
inactive: SF-539 9.89 µM | SF-268 16.8 µM | NCI-H460 19.4 µM | Malme-3M 13.4 µM | NCI/ADR-RES 18.6 µM | T47D 19 µM | SN12C 15.9 µM | SR 18 µM | HCT-116 12.2 µM | K562 16.6 µM | A549 17.1 µM | MDA-MB-231 15.8 µM | UACC-62 13.8 µM | M14 15.5 µM | SNB-19 14.8 µM | RXF 393 14.2 µM | PC-3 12.6 µM | EKVX 12.8 µM | HL-60 15 µM | SW-620 17 µM

NC(Cc1ccc(O)c(O)c1)P(=O)(O)O (stereo unspecified)
inactive: SF-539 > 100 µM | SF-268 > 100 µM | NCI-H460 > 100 µM | Malme-3M 81.5 µM | NCI/ADR-RES > 100 µM | T47D 18 µM | SN12C > 100 µM | SR 91.8 µM | HCT-116 > 100 µM | K562 19.6 µM | A549 > 100 µM | MDA-MB-231 > 100 µM | UACC-62 > 100 µM | M14 > 100 µM | SNB-19 > 100 µM | RXF 393 > 100 µM | PC-3 > 100 µM | HL-60 16.2 µM | SW-620 20.1 µM

NC(=O)c1cc2ccc(O)cc2o/c1=N/NC(=O)c1ccccc1
inactive: SF-268 > 100 µM | NCI-H460 40.2 µM | Malme-3M 84.3 µM | NCI/ADR-RES > 100 µM | T47D 15.6 µM | SN12C 63.7 µM | SR 22.2 µM | HCT-116 66.2 µM | K562 75.5 µM | A549 > 100 µM | MDA-MB-231 80.5 µM | UACC-62 62.2 µM | M14 86.5 µM | SNB-19 > 100 µM | RXF 393 40.6 µM | PC-3 83.2 µM | EKVX > 100 µM | HL-60 61 µM | SW-620 64.3 µM

CC(=O)/C(=N\N=C(N)N)c1ccccc1
inactive: SF-539 > 100 µM | SF-268 > 100 µM | NCI-H460 > 100 µM | Malme-3M > 100 µM | NCI/ADR-RES > 100 µM | T47D 73.1 µM | SN12C > 100 µM | SR > 100 µM | HCT-116 > 100 µM | K562 > 100 µM | A549 > 100 µM | MDA-MB-231 > 100 µM | UACC-62 > 100 µM | M14 > 100 µM | SNB-19 > 100 µM | RXF 393 > 100 µM | PC-3 > 100 µM | EKVX 68.1 µM | SW-620 > 100 µM

COc1ccc(C23OCC(Cc4cc(OC)c(OC)cc42)C3COC(C)=O)cc1OC (stereo unspecified)
inactive: SF-539 > 100 µM | SF-268 > 100 µM | NCI-H460 > 100 µM | Malme-3M > 100 µM | NCI/ADR-RES 25.5 µM | T47D > 100 µM | SR 27.4 µM | HCT-116 > 100 µM | K562 > 100 µM | A549 > 100 µM | MDA-MB-231 > 100 µM | UACC-62 > 100 µM | M14 > 100 µM | SNB-19 > 100 µM | RXF 393 > 100 µM | PC-3 > 100 µM | EKVX > 100 µM | HL-60 > 100 µM | SW-620 > 100 µM

COc1ccc(/C=C2\N=C(N3CCCCC3)NC2=O)cc1
inactive: SF-539 54 µM | SF-268 > 100 µM | Malme-3M > 100 µM | NCI/ADR-RES > 100 µM | T47D 34.5 µM | SN12C > 100 µM | SR 72.1 µM | HCT-116 > 100 µM | A549 > 100 µM | MDA-MB-231 > 100 µM | UACC-62 > 100 µM | M14 > 100 µM | SNB-19 > 100 µM | RXF 393 64 µM | PC-3 > 100 µM | EKVX > 100 µM | HL-60 > 100 µM | SW-620 96.8 µM

C[N+]1(Cc2ccc(Cl)c(Cl)c2)CCCC1C1CCCN(Cc2ccc(Cl)c(Cl)c2)C1 (stereo unspecified)
inactive: SF-539 > 100 µM | SF-268 > 100 µM | NCI-H460 > 100 µM | Malme-3M 82.4 µM | NCI/ADR-RES > 100 µM | T47D > 100 µM | SN12C > 100 µM | SR > 100 µM | HCT-116 > 100 µM | K562 52.4 µM | A549 > 100 µM | MDA-MB-231 > 100 µM | UACC-62 > 100 µM | M14 > 100 µM | SNB-19 > 100 µM | RXF 393 > 100 µM | PC-3 > 100 µM | EKVX 46 µM | SW-620 > 100 µM

Cc1ccc([S+]([O-])C[C@@]2(C(F)F)NC(=O)NC2=O)cc1 (stereo partly specified)
inactive: SF-268 > 100 µM | NCI-H460 > 100 µM | Malme-3M > 100 µM | NCI/ADR-RES > 100 µM | T47D > 100 µM | SR > 100 µM | HCT-116 > 100 µM | K562 > 100 µM | A549 > 100 µM | MDA-MB-231 > 100 µM | UACC-62 > 100 µM | M14 > 100 µM | SNB-19 > 100 µM | RXF 393 > 100 µM | PC-3 > 100 µM | EKVX > 100 µM | HL-60 > 100 µM | SW-620 > 100 µM

NC(CCC(=O)OCc1ccccc1)C(=O)NC(CCC(=O)OCc1ccccc1)C(=O)O (stereo unspecified) (H-Glu(OBn)-Glu(OBn)-OH; configuration not given here)
inactive: SF-268 > 100 µM | NCI-H460 > 100 µM | Malme-3M > 100 µM | NCI/ADR-RES > 100 µM | T47D > 100 µM | SN12C > 100 µM | SR > 100 µM | HCT-116 > 100 µM | K562 > 100 µM | A549 > 100 µM | MDA-MB-231 > 100 µM | UACC-62 > 100 µM | M14 > 100 µM | SNB-19 > 100 µM | RXF 393 > 100 µM | PC-3 > 100 µM | EKVX > 100 µM | HL-60 > 100 µM | SW-620 > 100 µM
